From patent publication US20250332265A1, “PSMA TARGETED CONJUGATE COMPOUNDS AND USES THEREOF” (priority 2021, published 2025)
Numbered stars: 1 amine (or outer) side, 2 acyl side, 3 side chain; on linkers, the order of the positions; unused ones are H or OH. Bridge positions count the residues as written; N and C are the ends. Square brackets hold non-standard residues; d marks the D form. Peptide text beside a SMILES is read from it. I, II: the chains in the order shown. * marks the point of attachment. Hexanoyl(6-succinimido-3yl) = O=C1CC([*:1])C(=O)N1CCCCCC(=O)[*:2]; Dolaproine = CO[C@@H]([C@@H]1CCCN1)[C@@H](C)C(=O)O; Dil = CC[C@H](C)[C@H](NC)[C@@H](CC(=O)O)OC; γGlu = O=C(O)[C@H](CCC(=O)[*:2])N[*:1]; PABC = O=C(OCc1ccc(N[*:1])cc1)[*:2]; X1 = C[C@@H](N*)[C@@H](O)c1ccccc1; Trx = NC[C@H]1CC[C@H](C(=O)O)CC1; Cit = NC(=O)NCCC[C@H](N)C(=O)O; NMeV = CN[C@H](C(=O)O)C(C)C; CO = O=C([*:1])[*:2]; Ahx = NCCCCCC(=O)O

Legend:
PC3pip cells [1] = assay: In vitro cytotoxicity by MTT assay, PC3pip; type: cell-based, human; details: 5 nM, 24 h
Protocol: (§1) In vitro cytotoxicity was measured by MTT assay. Cells (10000 cells/well) were seeded in 96-well plates and incubated for 24 h before adding 5 nM free MMAE, PSMA-MMAE, or PSMA-AuNCs-MMAE. An equivalent amount of PSMA-AuNCs without MMAE was added as a control, and another group of cells pretreated with 50 μM E64 inhibitor for 6 h was also incubated with PSMA-AuNCs-MMAE. After incubation for 1, 4, and 24 h, cells were rinsed with PBS and incubated with 1 mg/mL MTT solution in culture media for 3.5 h. After that media were removed, and 100 μL of DMSO was added. The absorbance was measured 15 min later by a plate reader (Tecan Infinite M200) with absorbance at 570 nm and reference at 620 nm.

[2] = In vitro cytotoxicity by MTT assay, PC3flu; type: cell-based, human; details: 5 nM, 24 h, read-out: cell killing / drop of viability, PC3flu cells
Protocol: as §1

PC3pip tumor = assay: In vivo chemoradiotherapy; design: species or system mice
Protocol: Male athymic nude mice were subcutaneously implanted with the PC3pip tumor, and when the tumor size reached about 100 mm^3 (tumor volume=length×width^2/2), the mice were divided into ten groups randomly. Each group was intravenously injected with PBS, PSMA-AuNCs, PSMA-AuNCs-MMAE, PSMA-MMAE, or a mixture of PSMA-AuNCs and PSMA-MMAE at MMAE dose of 400 nmol/kg and an equivalent dose of Au. At 4 h postinjection, five of the groups were irradiated with X-rays (6 Gy, Cs-137 with energy of 0.6616 MeV) focusing on the tumor region, and the other five groups received the same injections but no radiation and were used as controls. Each group contained five mice. All the treatments were given only once, and then the mice were monitored for tumor size and body weight every other day for one month. The coefficient of drug interaction (CDI) is calculated as follows: CDI=C/(A×B),^44 where C is the tumor volume ratio of PSMA-AuNCs-MMAE+RT group to control group, A is the tumor volume ratio of PSMA-AuNCs+RT group to control group, and B is the tumor volume ratio of PSMA-MMAE+RT group to control group; PBS+RT group is the control. […] When the tumors became too large or an animal was moribund, they were euthanized. At the end of monitoring, all mice were euthanized and tumors were isolated and weighed.

PC3pip cells [3] = assay: In vitro radiotherapy (colony survival); type: cell-based, human; details: 1 nM MMAE and/or 60 μg Au/mL, 6 h, X-ray 0-6 Gy
Protocol: Both PC3pip and PC3flu cells (1×10^5 cells/well) were cultured in 6-well plates for 24 h, and then PSMA-AuNC-MMAE and PSMA-MMAE were added at an equivalent MMAE concentration of 1 nM. Additionally, PSMA-AuNCs without MMAE was added at 60 μg Au/mL. Another group with the addition of a mixture of PSMA-AuNCs and PSMA-AuNC-MMAE at the equivalent dose of Au and MMAE was also evaluated. Mixing was performed so as to keep Au concentrations equivalent. This could not be achieved by adding more PSMA-AuNC-MMAE as this would result in toxic levels of MMAE. Cells without any treatment were used as blank control. Following incubation for 6 h, the media were removed, and cells were rinsed by PBS before exposing to X-ray radiation at doses of 0, 2, 4, and 6 Gy. Next, cells were trypsinized, counted, and reseeded in 6-well plate for colonies to grow. After 2 weeks, all the wells were rinsed with PBS, fixed with 4% paraformaldehyde, and stained by 0.4% crystal violet. The number of colonies from each well was counted to calculate the survive fraction.

[4] = test system: α-tubulin in PC3pip and PC3flu cells; assay: Immunofluorescence analysis of alpha-tubulin; type: cell-based, human; details: 5 nM, 24 hours
Protocol: Cells on coverslips at about 70% confluency were incubated with 5 nM of MMAE, PSMA-1-VcMMAE-Cy5.5 or PSMA-1-McMMAE-Cy5.5 for 24 hours. Cells were washed and fixed with 4% paraformaldehyde for 10 minutes, permeabilized with 0.1% Triton™ X-100 for 10 minutes, and blocked with 1% BSA for 1 hour at room temperature. Alpha-tubulin (B5-1-2) Alexa Fluor 488 Mouse Monoclonal Antibody (Invitrogen) was then added at 2 μg/mL in 0.1% BSA and incubated for 3 hours at room temperature. Cells were counterstained with DAPI, mounted with Fluor-Mount aqueous mounting solution, and observed under Leica DM4000B fluorescence microscopy at 40×.

PC3flu cells = assay: In vitro cytotoxicity by MTT assay, PC3flu; type: cell-based, human; details: 5 nM, 24 h
Protocol: as §1

[5] = Maximum tolerated dose (MTD); type: in vivo, mice; details: single dose i.v., tumor-free athymic nude mice
Description: Mice were monitored daily for 14 days.

[6] = test system: PSMA-positive PC3pip cells; assay: In vitro cytotoxicity assay (CCK-8), PC3pip; type: cell-based, human; details: 72 hours incubation
Protocol: Cells (1,000/well) were seeded in 96-well culture plates the day before treatment. Cells were incubated with various concentrations of drugs for 72 hours and cell viability evaluated by CCK-8 (Dojindo). The concentration required to reach 50% of cell proliferation was determined (IC50) by GraphPad Prism 3.0.

[7] = test system: heterotopic PC3pip tumors; assay: Heterotopic survival study; type: in vivo, mice
Description: Male athymic nude mice were implanted subcutaneously with 1×10^6 of PC3pip cells under the right dorsum of the mice. When tumor size reached approximately 100 mm^3 (tumor volume=Length×width^2/2), mice received drugs through tail vein injection. […] Animals were weighed and tumor size measured every other day for 90 days. Cures were defined as no tumor present at end of the 90-day study. When tumors became too large or animals were moribund they were euthanized. Five mice were used in each group.

| SMILES | cell killing, PC3pip cells (PC3pip cells [1]) | cytotoxicity [2] [%] | tumor volume increase (PC3pip tumor; 6 Gy radiation, day 30, MMAE 400 nmol/kg) [%] | tumor volume increase (PC3pip tumor; no radiation, end of observation, MMAE 400 nmol/kg) [%] | radiosensitization (colony survival rate) of PC3pip cells (PC3pip cells [3]) | disruption of α-tubulin network [4] | cell killing / drop of viability, PC3flu cells (PC3flu cells) | maximum tolerated dose (MTD) [5] [nmol/kg] | selectivity, differential cytotoxicity between PC3pip and PC3flu cells [6] | time by which all mice died ([7]; 160 nmol/kg) [days] | antitumor activity (tumor growth), words ([7]; 160 nmol/kg i.v. every four days, 5 doses) |
| --- | --- | --- | --- | --- | --- | --- | --- | --- | --- | --- | --- |
| CC[C@H](C)[C@@H]([C@@H](CC(=O)N1CCC[C@H]1[C@H](OC)[C@@H](C)C(=O)N[C@H](C)[C@@H](O)c1ccccc1)OC)N(C)C(=O)[C@@H](NC(=O)[C@H](C(C)C)N(C)C(=O)OCc1ccc(NC(=O)[C@H](CCCNC(N)=O)NC(=O)[C@@H](NC(=O)CCCCCN2C(=O)CC(SC[C@H](NC(=O)[C@H](Cc3ccc(O)cc3)NC(=O)[C@H](CCCCN)NC(=O)[C@H](CCC(=O)O)NC(=O)[C@H](CCC(=O)O)NC(=O)[C@H](CCC(=O)O)NC(=O)CCCCCNC(=O)[C@H]3CC[C@H](CNC(=O)CC[C@H](NC(=O)N[C@@H](CCC(=O)O)C(=O)O)C(=O)O)CC3)C(N)=O)C2=O)C(C)C)cc1)C(C)C (stereo partly drawn) [PSMA-MMAE] (I: {Glu-CO-γGlu-Trx-Ahx}-EEEKYC-NH2 / II: V[Cit][PABC][NMeV]V[Dil][Dolaproine]-X1; linker I:6-II:N via Hexanoyl(6-succinimido-3yl); C-terminus assumed) | 58% | 18 | 55 | 163 | notably lower survival rate | – | – | – | – | – | – |
| CC[C@H](C)[C@@H]([C@@H](CC(=O)N1CCC[C@H]1[C@H](OC)[C@@H](C)C(=O)N[C@H](C)[C@@H](O)c1ccccc1)OC)N(C)C(=O)[C@@H](NC(=O)[C@@H](NC)C(C)C)C(C)C [MMAE, monomethyl auristatin E, reference compound] (H-[NMeV]V[Dil][Dolaproine]-X1) | over 70% | – | – | – | – | non-selective tubulin disruption | over 70% | 700 | no selectivity | ≤ 36 | relatively ineffective at inhibiting tumor growth |
